Data as given in ChEMBL document CHEMBL1201862, “PubChem BioAssay data set” (2004).
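Following 48 hours of exposure in 96-well plates, responses at five concentrations were used to interpolate endpoints linearly. GI50 marks 50% less growth.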 Calls of active or inactive are those of the source. No stated cut-off is given here; in the data, active = GI50 up to about 1.1 µM and inactive = higher.

Legend:
Test in all cases: NCI anticancer screen, dose series, 48 h
CAKI-1 = tested on: CAKI-1
786-0 = tested on: 786-0
EKVX = tested on: EKVX
UO-31 = tested on: UO-31
MOLT-4 = tested on: MOLT-4
LOX IMVI = tested on: LOX IMVI
T47D = tested on: T47D
MDA-MB-231 = tested on: MDA-MB-231
UACC-257 = tested on: UACC-257
HT-29 = tested on: HT-29
HOP-62 = tested on: HOP-62
RPMI-8226 = tested on: RPMI-8226
MDA-N = tested on: MDA-N
CCRF-CEM = tested on: CCRF-CEM
OVCAR-8 = tested on: OVCAR-8
RXF 393 = tested on: RXF 393
SK-MEL-28 = tested on: SK-MEL-28
NCI/ADR-RES = tested on: NCI/ADR-RES
SK-MEL-2 = tested on: SK-MEL-2
SNB-75 = tested on: SNB-75

Row | Compound | GI50 (CAKI-1) | GI50 (786-0) | GI50 (EKVX) | GI50 (UO-31) | GI50 (MOLT-4) | GI50 (LOX IMVI) | GI50 (T47D) | GI50 (MDA-MB-231) | GI50 (UACC-257) | GI50 (HT-29) | GI50 (HOP-62) | GI50 (RPMI-8226) | GI50 (MDA-N) | GI50 (CCRF-CEM) | GI50 (OVCAR-8) | GI50 (RXF 393) | GI50 (SK-MEL-28) | GI50 (NCI/ADR-RES) | GI50 (SK-MEL-2) | GI50 (SNB-75)
1 | CC(C)(O)CO/N=C1\C(=C2\C(=O)Nc3ccccc32)Nc2ccccc21 | 0.112 µM (active) | 10.7 µM (inactive) | 1.65 µM (inactive) | 0.348 µM (active) | 0.944 µM (active) | 0.583 µM (active) | 0.631 µM (active) | 2.01 µM (inactive) | 4.49 µM (inactive) | 1.75 µM (inactive) | 2.1 µM (inactive) | 1.97 µM (inactive) | 12.2 µM (inactive) | 0.435 µM (active) | 1.15 µM (inactive) | 0.279 µM (active) | 2.38 µM (inactive) | 1.33 µM (inactive) | 0.232 µM (active) | 0.811 µM (active)
2 | Cc1nc2c(=O)n(C)c(=O)nc-2n(CCO)c1C | > 100 µM (inactive) | > 100 µM (inactive) | > 100 µM (inactive) | > 100 µM (inactive) | > 100 µM (inactive) | > 100 µM (inactive) | > 100 µM (inactive) | > 100 µM (inactive) | > 100 µM (inactive) | > 100 µM (inactive) | > 100 µM (inactive) | > 100 µM (inactive) | > 100 µM (inactive) | > 100 µM (inactive) | > 100 µM (inactive) | > 100 µM (inactive) | > 100 µM (inactive) | > 100 µM (inactive) | > 100 µM (inactive) | > 100 µM (inactive)
3 | COc1cccc2c1C(=O)c1c(O)c3c(c(O)c1C2=O)C[C@@](O)(C(=O)CO)CC3OC1CC(O)C(O)C(C)O1 (stereo not given in full) | 0.185 µM (active) | 0.103 µM (active) | 1.72 µM (inactive) | 0.421 µM (active) | 0.0202 µM (active) | 0.108 µM (active) | 0.286 µM (active) | 0.565 µM (active) | 0.453 µM (active) | 0.354 µM (active) | 0.0146 µM (active) | 0.199 µM (active) | 0.562 µM (active) | 0.0217 µM (active) | 0.256 µM (active) | 0.238 µM (active) | 0.789 µM (active) | 1.13 µM (inactive) | 0.608 µM (active) | 0.167 µM (active)
4 | O=S(=O)(O)C(Cc1nc2ccccc2[nH]1)S(=O)(=O)OCCC1S(=O)(=O)OCCOS1(=O)=O (stereo not given) | > 100 µM (inactive) | > 100 µM (inactive) | > 100 µM (inactive) | > 100 µM (inactive) | > 100 µM (inactive) | > 100 µM (inactive) | > 100 µM (inactive) | > 100 µM (inactive) | > 100 µM (inactive) | > 100 µM (inactive) | > 100 µM (inactive) | > 100 µM (inactive) | > 100 µM (inactive) | > 100 µM (inactive) | > 100 µM (inactive) | > 100 µM (inactive) | > 100 µM (inactive) | > 100 µM (inactive) | > 100 µM (inactive) | > 100 µM (inactive)
5 | Cc1nc(O)c(O)c(CN2CCCCC2)n1 | > 100 µM (inactive) | > 100 µM (inactive) | > 100 µM (inactive) | > 100 µM (inactive) | > 100 µM (inactive) | > 100 µM (inactive) | > 100 µM (inactive) | > 100 µM (inactive) | > 100 µM (inactive) | > 100 µM (inactive) | > 100 µM (inactive) | > 100 µM (inactive) | > 100 µM (inactive) | > 100 µM (inactive) | > 100 µM (inactive) | > 100 µM (inactive) | > 100 µM (inactive) | > 100 µM (inactive) | > 100 µM (inactive) | > 100 µM (inactive)
6 | Nc1c(S(=O)(=O)O)cc(Nc2cccc(S(N)(=O)=O)c2)c2c1C(=O)c1ccccc1C2=O | > 100 µM (inactive) | 62.5 µM (inactive) | 57 µM (inactive) | 97.3 µM (inactive) | > 100 µM (inactive) | 43.8 µM (inactive) | > 100 µM (inactive) | > 100 µM (inactive) | 54.2 µM (inactive) | 29.6 µM (inactive) | 23.4 µM (inactive) | > 100 µM (inactive) | 20.3 µM (inactive) | > 100 µM (inactive) | > 100 µM (inactive) | 74.3 µM (inactive) | > 100 µM (inactive) | > 100 µM (inactive) | 75.7 µM (inactive) | 29.6 µM (inactive)
7 | Cc1nnc2sc(NN)nn12 | > 100 µM (inactive) | > 100 µM (inactive) | > 100 µM (inactive) | > 100 µM (inactive) | 17.5 µM (inactive) | > 100 µM (inactive) | > 100 µM (inactive) | > 100 µM (inactive) | > 100 µM (inactive) | > 100 µM (inactive) | > 100 µM (inactive) | > 100 µM (inactive) | 43.5 µM (inactive) | 41.4 µM (inactive) | > 100 µM (inactive) | > 100 µM (inactive) | > 100 µM (inactive) | > 100 µM (inactive) | > 100 µM (inactive) | > 100 µM (inactive)
8 | NCCCc1c(-c2ccccc2)[nH]c(N)nc1=O | > 100 µM (inactive) | > 100 µM (inactive) | > 100 µM (inactive) | > 100 µM (inactive) | > 100 µM (inactive) | > 100 µM (inactive) | > 100 µM (inactive) | > 100 µM (inactive) | > 100 µM (inactive) | > 100 µM (inactive) | > 100 µM (inactive) | > 100 µM (inactive) | > 100 µM (inactive) | > 100 µM (inactive) | > 100 µM (inactive) | > 100 µM (inactive) | > 100 µM (inactive) | > 100 µM (inactive) | > 100 µM (inactive) | > 100 µM (inactive)
9 | CC1(C)CC(Nc2ccc(Nc3ccccc3)cc2)CC(C)(C)N1 | 22.9 µM (inactive) | 21.1 µM (inactive) | 34.2 µM (inactive) | 9.48 µM (inactive) | 18.1 µM (inactive) | 24.6 µM (inactive) | 16 µM (inactive) | 14.9 µM (inactive) | 14.7 µM (inactive) | 21.3 µM (inactive) | 50.2 µM (inactive) | 12.7 µM (inactive) | 17 µM (inactive) | 6.41 µM (inactive) | 30.1 µM (inactive) | 18 µM (inactive) | 18.2 µM (inactive) | 21.9 µM (inactive) | 23.8 µM (inactive) | 37.6 µM (inactive)
10 | CC[C@@]1(O)C(=O)OCc2c1cc1n(c2=O)Cc2c-1nc1ccccc1c2/C=N\NC(=O)C[n+]1ccccc1 | 0.151 µM (active) | 0.231 µM (active) | > 28.1 µM (inactive) | 0.29 µM (active) | 0.0552 µM (active) | 0.218 µM (active) | 0.0346 µM (active) | 64.6 µM (inactive) | 2.82 µM (inactive) | 2.33 µM (inactive) | 0.164 µM (active) | 1.67 µM (inactive) | 4.02 µM (inactive) | 0.0357 µM (active) | 0.398 µM (active) | 0.76 µM (active) | 3.29 µM (inactive) | 0.817 µM (active) | 37.6 µM (inactive) | 0.23 µM (active)
11 | Cc1cccc(C[C@@]2(SCc3ccccc3)C(C)(C)[C@@H]3CC[C@@]2(C)C3)n1 | 16.7 µM (inactive) | 17.6 µM (inactive) | 17.6 µM (inactive) | 19.4 µM (inactive) | 12.6 µM (inactive) | 16.6 µM (inactive) | 7.26 µM (inactive) | 14 µM (inactive) | 14.1 µM (inactive) | 15 µM (inactive) | 23.4 µM (inactive) | 11.8 µM (inactive) | 24.5 µM (inactive) | 12.9 µM (inactive) | 16.5 µM (inactive) | 16.3 µM (inactive) | 19.5 µM (inactive) | 13.8 µM (inactive) | 13.9 µM (inactive) | 15.2 µM (inactive)
